This test concerns the target Solute carrier family 2, facilitated glucose transporter member 9 (Homo sapiens) (UniProt Q9NRM0). Nature of the test: GLUT9 transporter activity via membrane potential – cell-based, membrane potential dye, HEK-293, SLC2A9 overexpression, dose response (AID 1794831). The conditions noted are these: HEK-293 SLC2A9 OE, FLIPR membrane potential dye.

Solute carrier family 2, facilitated glucose transporter member 9 (Homo sapiens), sequence (Q9NRM0 whole entry, looked up): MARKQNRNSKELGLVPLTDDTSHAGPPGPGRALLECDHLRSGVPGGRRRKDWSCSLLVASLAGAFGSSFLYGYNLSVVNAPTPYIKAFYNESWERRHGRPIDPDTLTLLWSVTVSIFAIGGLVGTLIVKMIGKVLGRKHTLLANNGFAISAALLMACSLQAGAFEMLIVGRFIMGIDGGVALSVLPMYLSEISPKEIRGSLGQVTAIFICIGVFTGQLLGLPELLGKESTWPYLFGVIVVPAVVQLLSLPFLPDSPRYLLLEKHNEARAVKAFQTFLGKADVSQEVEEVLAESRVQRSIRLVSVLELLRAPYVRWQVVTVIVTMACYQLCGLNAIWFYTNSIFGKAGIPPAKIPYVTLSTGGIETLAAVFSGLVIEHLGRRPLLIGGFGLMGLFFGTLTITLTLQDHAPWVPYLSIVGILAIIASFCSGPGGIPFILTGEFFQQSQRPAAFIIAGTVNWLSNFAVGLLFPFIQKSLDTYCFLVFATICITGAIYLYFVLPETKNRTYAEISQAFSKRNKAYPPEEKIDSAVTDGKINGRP

Turning to `O=C(O)c1cc(=O)[nH]c(=O)[nH]1`, the EC50 (commonly the concentration at which the effect is half-maximal) was 1000 µM.

Take `O=c1[nH]c(=O)c2[nH]c(=O)[nH]c2[nH]1`: the concentration giving a half-maximal response (EC50) was 300 µM.

Source of the values: PubChem BioAssay AID1794831.
